Assays:
Format in all cases: in vivo, human
[1] = system: patients with migraine headache; assay: capsaicin cream applied to nasal mucosa in migraine headache; details: 0.025% by weight capsaicin cream to nasal mucosa
[2] = system: patients with migraine headache disorder; assay: intranasal capsaicin cream for acute migraine pain, two patients; details: 0.025% by weight capsaicin cream intranasally, both of two migraine patients
Experimental: Two patients with migraine headache disorder were administered 0.025% by weight capsaicin cream intranasally for acute relief of their migraine pain. Both reported increased lacrimation within 30 minutes of application of the capsaicin cream.

[3] = system: normal volunteers; assay: multi-dose 14 day tolerance study of civamide nasal spray; details: 14 days, 10 normal volunteers
[4] = system: patients with vasomotor rhinitis (non-allergic rhinitis); assay: double-blind placebo-controlled 2 week evaluation of civamide nasal spray in vasomotor rhinitis; details: 0.01% by weight civamide nasal spray, 2 weeks
Source text: Fifty-five (55) patients with vasomotor rhinitis (non-allergic rhinitis) participated in a double-blind placebo-controlled 2 week evaluation of the symptomatic relief afforded patients by 0.01% by weight civamide nasal spray or placebo nasal spray (vehicle for active product). Thirty-one percent (31%) of patients using 0.01% civamide spray reported increased tearing, while 0% of patients on placebo noted such a side effect.

[5] = system: patients with episodic cluster headache; assay: civamide nasal drops in episodic cluster headache; details: 0.025% by weight civamide nasal drops once daily for 1 week, 9 of 18 patients
Source text: In a study utilizing 0.025% by weight civamide nasal drops administered once daily for 1 week to 28 patients with episodic cluster headache (a severe form of vasomotor headache that occurs in general 4-24 week clusters), 9 of 18 patients (50%) on civamide nasal drops had increased tearing versus 0 of 10 patients (0%) on vehicle control.

[6] = system: episodic cluster headache patients; assay: civamide nasal spray versus inactive control in episodic cluster headache; details: 0.01% by weight civamide nasal spray twice daily, 36 patients

Compound | patients who reported increased tearing as a side effect [1] [%] | patients who noted some relief of their headaches ([1]; 4 hours after administration) [%] | time to reported increased lacrimation after application [2] [min] | subjects who experienced increased lacrimation (tear production) ([3]; 0.0075% by weight civamide nasal spray twice daily) [%] | subjects who experienced increased lacrimation (tear production) ([3]; 0.01% by weight civamide nasal spray twice daily) [%] | subjects who experienced increased tearing ([3]; […] by weight civamide nasal spray once daily) [%] | patients who reported increased tearing [4] [%] | patients who had increased tearing [5] [%] | patients who reported increased tearing [6] [%]
COc1cc(CNC(=O)CCCC/C=C/C(C)C)ccc1O [capsaicin] | 44 | 73 | ≤ 30 | – | – | – | – | – | –
COc1cc(CNC(=O)CCCC/C=C\C(C)C)ccc1O [civamide, cis-8-methyl-N-vanillyle-nonenamide] | – | – | – | 100 | 100 | 90 | 31 | 50 | 51

Reference: patent US20090093446A1, “METHOD FOR ALLEVIATING KERATOCONJUNCTIVITIS SICCA” (priority 2007, published 2009)
